The source of these data is ChEMBL document CHEMBL1130567, “A simplified template approach towards the synthesis of a potent beta-3 adrenoceptor agonist at the human receptor” (Bioorg Med Chem Lett, 1997).

The first assay deals with T1, Beta-3 adrenergic receptor (Homo sapiens, UniProt P13945). Kind of assay: Beta-3 agonist efficacy in an adenylate cyclase assay performed on chinese hamster ovary cells transfected with human Beta-3 adrenergic receptor; inactive. Format: functional, cell-based.
T1 sequence (P13945 whole entry): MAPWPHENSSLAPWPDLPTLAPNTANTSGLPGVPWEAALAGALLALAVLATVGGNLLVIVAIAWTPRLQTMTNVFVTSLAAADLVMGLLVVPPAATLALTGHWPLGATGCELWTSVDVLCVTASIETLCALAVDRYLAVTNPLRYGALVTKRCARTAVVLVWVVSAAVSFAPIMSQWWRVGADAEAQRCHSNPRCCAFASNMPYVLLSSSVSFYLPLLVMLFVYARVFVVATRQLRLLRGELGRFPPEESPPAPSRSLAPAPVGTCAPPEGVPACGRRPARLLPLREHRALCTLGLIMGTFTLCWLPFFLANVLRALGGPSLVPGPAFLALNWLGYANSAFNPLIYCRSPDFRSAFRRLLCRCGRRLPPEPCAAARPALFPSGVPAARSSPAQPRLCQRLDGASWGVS
With `COc1ccc(CCNC[C@@H](O)COc2cccc3c2CCC(=O)N3)cc1`, the EC50 result was “Not Active”.
With `COc1ccc(CCNC[C@@H](O)COc2cc(O)cc(CO)c2)cc1`, the EC50 entry is “Not Active”.
`COc1ccc(CCNC[C@@H](O)COc2cccc3nc(O)ccc23)cc1`: the EC50 result is “Not Active”.
Same read-out and setting: the result for `COc1ccc(CCNC[C@@H](O)COc2ccc3c(c2)NC(=O)CO3)cc1` reads “Not Active”.
On to `COc1ccc(CCNC[C@@H](O)COc2ccc(O)cc2CO)cc1`, for which the 50% effective concentration (EC50) entry is reported as “Not Active”.
Take `COc1ccc(CCNC[C@@H](O)COc2ccc(F)c(CO)c2)cc1`: the EC50 entry was “Not Active”.
Turning to `COc1ccc(CCNC[C@@H](O)COc2cccc3[nH]c(C(F)(F)F)nc23)cc1`, the 50% effective concentration (EC50) result is reported as “Not Active”.
In the case of `COc1ccc(CCNC[C@@H](O)COc2ccccc2O)cc1`, the half-maximal effective concentration (EC50) entry is on record as “Not Active”.

A further assay deals with T1, Beta-3 adrenergic receptor. Briefly: Agonist efficacy for human Beta-3 adrenergic receptor expressed in chinese hamster ovary cells. Format: functional, cell-based.
As to `COc1ccc(CCNC[C@@H](O)COc2ccc(O)c(O)c2)cc1`, the EC50 stood at 820 nM.
Same read-out and setting: with `COc1ccc(CCNC[C@@H](O)COc2ccc(O)c(NS(C)(=O)=O)c2)cc1` the figure was 400 nM; with `COc1ccc(CCNC[C@@H](O)COc2ccc(O)c(F)c2)cc1`, 7900 nM.
In turn, `COc1ccc(CCNC[C@@H](O)COc2cccc3[nH]c(=O)[nH]c23)cc1` had an EC50 of 2200 nM.
Molecule `C[C@H](Cc1ccc(OCP(=O)(O)c2ccccc2)cc1)NC[C@H](O)COc1ccc(O)c(NS(C)(=O)=O)c1` gave an EC50 of 120 nM.
As for `COc1ccc(CCNC[C@@H](O)COc2ccc(O)c3c2CCC(=O)N3)cc1`, it took 560 nM to reach a half-maximal effect (EC50).
The molecule `COc1ccc(CCNC[C@@H](O)COc2cccc(O)c2)cc1` yielded an EC50 of 2000 nM.
In turn, `COc1ccc(CCNC[C@@H](O)COc2ccc(O)cc2)cc1` came in with an EC50 of 1000 nM.
On the same count and under the same terms, the result for `CCCCCCP(=O)(O)COc1ccc(CCNC[C@H](O)COc2ccc(O)c3c2CCC(=O)N3)cc1` reads 290 nM.
The molecule `COc1ccc(CCNC[C@@H](O)COc2ccc(O)c(CO)c2)cc1` gave an EC50 of 4700 nM.
In turn, `COc1ccc(CCNC[C@@H](O)COc2ccc(F)c(O)c2)cc1` displayed an EC50 of 1100 nM.
Same read-out and setting: the result for `CC(C)(C)NCC(O)COc1cccc2[nH]c(=O)[nH]c12` (stereo unspecified) [CGP-12177] reads 2000 nM.

In another assay the target is T1, Beta-3 adrenergic receptor. Kind of assay: Beta-3 agonist efficacy in an adenylate cyclase assay performed on chinese hamster ovary cells transfected with human Beta-3 adrenergic receptor; Inactive. It is filed as functional, cell-based.
Consider `COc1ccc(CCNC[C@H](O)COc2cccc(O)c2O)cc1`, for which the EC50 result is listed as “Not Active”.

The term EC50 denotes the midpoint of the concentration-response curve.
